Where “and” joins values, the source holds several entries; their conditions need not be identical. Identical values can stand only once. Like-named read-outs stand apart in the source and are kept apart here.
Assays:
[1] = CIA study: pharmacokinetics / plasma concentration after oral administration; format: in vivo, Lewis rats
[2] = CIA study: clinical observations; format: in vivo, Lewis rats; conditions: CIA rats
[3] = system: IL-22; assay: IL-22 release from activated human PBMCs (ELISA); format: cell-based; conditions: for Percent Inhibition Relative to Control (IL-22): Donors 1-6, two values per donor; for IC50: Homo sapiens, PBMC
Method: Human PBMCs used to analyze inhibition of CXCL10 were collected from 8 donors, PBMCs used to analyze inhibition of IL-17A were collected from 7 donors, and PBMCs used to analyze inhibition of IL-22 were collected from 6 donors. Compounds were serially diluted in 10 mM DMSO and further diluted in assay media to 100× the required final concentration, of which 2 μL was added to the specified well. […] The cell culture supernatant was collected and levels of IL-17A and IL-22 in the supernatant were assessed by ELISA (Invitrogen).

[4] = biological target: T1, BRD4 BD1 (Homo sapiens, UniProt O60885); assay: NanoBRET bromodomain assay, NanoLuc-BRD4-BD1 in HEK293 cells; format: binding
T1 construct: HEK293 cells were transfected using NanoLuc-BRD4-BD1 or NanoLuc-BRD4-BD2 fusion vectors

SMILES: Cn1cc(-c2ccccc2)c(-c2cn(C)c(=O)c3[nH]c(-c4cnn(C(F)(F)F)c4)cc23)cc1=O [Compound A, 6-methyl-4-(1-methyl-2-oxo-5-phenyl-1,2-dihydropyridin-4-yl)-2-(1-(trifluoromethyl)-1H-pyrazol-4-yl)-1,6-dihydro-7H-pyrrolo[2,3-c]pyridin-7-one]
- concentration at 2 h ([1]; Lewis, rat, plasma, po, 3 mg/kg, oral 3 mg/kg, day 21, 2 h, individual test subjects, read-out: Plasma concentration): 33 ng/mL
- concentration at 4 h ([1]; Lewis, rat, plasma, po, 3 mg/kg, oral 3 mg/kg, day 21, 4 h, individual test subjects, read-out: Plasma concentration): 48.3 ng/mL
- concentration at 6 h ([1]; Lewis, rat, plasma, po, 3 mg/kg, oral 3 mg/kg, day 21, 6 h, individual test subjects, read-out: Plasma concentration): 44.2 ng/mL
- concentration at 8 h ([1]; Lewis, rat, plasma, po, 3 mg/kg, oral 3 mg/kg, day 21, 8 h, individual test subjects, read-out: Plasma concentration): 30.9 ng/mL
- concentration at 0.25 h ([1]; Lewis, rat, plasma, po, 3 mg/kg, oral 3 mg/kg, day 21, time 0.25, read-out: Mean Concentration (average plasma concentration)): 15.4 ng/mL
- concentration at 0.5 h ([1]; Lewis, rat, plasma, po, 3 mg/kg, oral 3 mg/kg, day 21, time 0.5, read-out: Mean Concentration (average plasma concentration)): 21 ng/mL
- concentration at 1 h ([1]; Lewis, rat, plasma, po, 3 mg/kg, oral 3 mg/kg, day 21, time 1, read-out: Mean Concentration (average plasma concentration)): 28.7 ng/mL
- concentration at 2 h ([1]; Lewis, rat, plasma, po, 3 mg/kg, oral 3 mg/kg, day 21, time 2, read-out: Mean Concentration (average plasma concentration)): 37.5 ng/mL
- concentration at 4 h ([1]; Lewis, rat, plasma, po, 3 mg/kg, oral 3 mg/kg, day 21, time 4, read-out: Mean Concentration (average plasma concentration)): 45.8 ng/mL
- concentration at 6 h ([1]; Lewis, rat, plasma, po, 3 mg/kg, oral 3 mg/kg, day 21, time 6, read-out: Mean Concentration (average plasma concentration)): 47 ng/mL
- concentration at 8 h ([1]; Lewis, rat, plasma, po, 3 mg/kg, oral 3 mg/kg, day 21, time 8, read-out: Mean Concentration (average plasma concentration)): 40.6 ng/mL
- concentration at 24 h ([1]; Lewis, rat, plasma, po, 3 mg/kg, oral 3 mg/kg, day 21, time 24): 12.2 ng/mL
- AUC ([1]; Lewis, rat, plasma, po, CIA-induced animals, day 21, 3 mg/kg, average, read-out: AUClnf (Mean)): 904 ng·h/mL
- Plasma Concentration ([1]; oral 3 mg/kg, day 0, 0.25 h, individual test subjects, 3 mg/kg): 28.7 ng/mL and 12.9 ng/mL and 8.85 ng/mL
- Plasma Concentration ([1]; oral 3 mg/kg, day 0, 0.5 h, individual test subjects, 3 mg/kg): 39.3 ng/mL and 25.4 ng/mL and 19.5 ng/mL
- Plasma Concentration ([1]; oral 3 mg/kg, day 0, 1 h, individual test subjects, 3 mg/kg): 78.4 ng/mL and 40.1 ng/mL and 34.7 ng/mL
- Plasma Concentration ([1]; oral 3 mg/kg, day 0, 2 h, individual test subjects, 3 mg/kg): 66.0 ng/mL and 62.7 ng/mL
- Plasma Concentration ([1]; oral 3 mg/kg, day 0, 4 h, individual test subjects, 3 mg/kg): 77.9 ng/mL and 80.7 ng/mL
- Plasma Concentration ([1]; oral 3 mg/kg, day 0, 6 h, individual test subjects, 3 mg/kg): 77.1 ng/mL and 82.6 ng/mL
- Plasma Concentration ([1]; oral 3 mg/kg, day 0, 8 h, individual test subjects, 3 mg/kg): 76.1 ng/mL and 74.4 ng/mL
- Plasma Concentration ([1]; oral 3 mg/kg, day 0, 24 h, individual test subjects, 3 mg/kg): 35.6 ng/mL and 14.1 ng/mL and 17.3 ng/mL
- Plasma Concentration ([1]; oral 3 mg/kg, day 21, 0.25 h, individual test subjects, 3 mg/kg): 14.7 ng/mL and 13.1 ng/mL
- Plasma Concentration ([1]; oral 3 mg/kg, day 21, 0.5 h, individual test subjects, 3 mg/kg): 20.9 ng/mL and 19.8 ng/mL
- Plasma Concentration ([1]; oral 3 mg/kg, day 21, 1 h, individual test subjects, 3 mg/kg): 27.0 ng/mL and 25.5 ng/mL
- Plasma Concentration ([1]; oral 3 mg/kg, day 21, 2 h, individual test subjects, 3 mg/kg): 45.6 ng/mL and 33.8 ng/mL
- Plasma Concentration ([1]; oral 3 mg/kg, day 21, 4 h, individual test subjects, 3 mg/kg): 44.3 ng/mL and 44.7 ng/mL
- Plasma Concentration ([1]; oral 3 mg/kg, day 21, 6 h, individual test subjects, 3 mg/kg): 51.2 ng/mL and 45.7 ng/mL
- Plasma Concentration ([1]; oral 3 mg/kg, day 21, 8 h, individual test subjects, 3 mg/kg): 45.6 ng/mL and 45.3 ng/mL
- Plasma Concentration ([1]; oral 3 mg/kg, day 21, 24 h, individual test subjects, 3 mg/kg): 6.60 ng/mL and 15.6 ng/mL and 14.4 ng/mL
- Clinical observations ([2]; 1 mg/kg, Day 16): Diarrhea
- Clinical observations ([2]; 3 mg/kg, Day 13): Diarrhea
- Clinical observations ([2]; 3 mg/kg, Day 14): Diarrhea
- Clinical observations ([2]; 3 mg/kg, Day 15): Diarrhea
- Clinical observations ([2]; 3 mg/kg, Day 16): Diarrhea
- Clinical observations ([2]; 3 mg/kg, Day 21): Diar-
- Clinical observations ([2]; 10 mg/kg, Day 12): Diarrhea
- Clinical observations ([2]; 10 mg/kg, Day 13): Diarrhea
- Clinical observations ([2]; 10 mg/kg, Day 14): Diarrhea
- Clinical observations ([2]; 10 mg/kg, Day 15): Diarrhea
- Clinical observations ([2]; 10 mg/kg, Day 16): Diarrhea
- Clinical observations ([2]; 10 mg/kg, Day 17): Diarrhea
- Clinical observations ([2]; 10 mg/kg, Day 18): Diarrhea
- potency against IL-22 relative to CXCL10 [3]: about 17,000 fold
- Biomarker selectivity (IL-22 vs. CXCL 10) ([3]; Average preliminary biomarker assay): 5178 Fold
- Percent Inhibition Relative to Control (IL-22) ([3]; Compound Conc. 0.000137174 μM): 36.49% and 20.77% and 20.31% and 15% and 13.22% and 40.62% and 42.44% and −18.99% and 2.10% and 20.38% and 35.83% and 13.68%
- Percent Inhibition Relative to Control (IL-22) ([3]; Compound Conc. 0.000411523 μM): 27.24% and 13.07% and 35.55% and 45.22% and 56.28% and 11.33* Percent and 49.71% and 35.72% and 28.88% and 47.8% and 62.34% and 36.26%
- Percent Inhibition Relative to Control (IL-22) ([3]; Compound Conc. 0.001234568 μM): 58.12% and 42.53% and 46.04% and 55.94% and 57.50% and 65.37% and 75.65% and 47.36% and 70.12% and 62.59% and 69.46% and 42.31%
- Percent Inhibition Relative to Control (IL-22) ([3]; Compound Conc. 0.003703704 μM): 71.96% and 57.94% and 67.89% and 62.44%
- Percent Inhibition Relative to Control (IL-22) ([3]; Compound Conc. 0.011111111 μM): 52.73% and 45.71% and 72.33% and 61.13% and 48.74% and 54.26% and 71.04% and 74.68% and 76.83% and 75.01% and 72.99% and 61.33%
- Percent Inhibition Relative to Control (IL-22) ([3]; Compound Conc. 0.033333333 μM): 59.22% and 62.46% and 72.37% and 75.81% and 66.02% and 52.09% and 58.24% and 79.61% and 59.59% and 77.99% and 81.27% and 61.98%
- Percent Inhibition Relative to Control (IL-22) ([3]; Compound Conc. 0.1 μM): 72.76% and 68.86% and 83.13% and 82.57% and 67.92% and 74.39% and 71.46% and 84.71% and 87.61% and 80.76% and 81.88% and 60.98%
- Percent Inhibition Relative to Control (IL-22) ([3]; Compound Conc. 1.52416E−05 μM): −4.73% and 3.62% and −2.47% and −6.99% and −5.22% and 11.96% and 21.53% and −30.35% and −52.69% and −14.1* Percent and −16.32* Percent and −0.25%
- Percent Inhibition Relative to Control (IL-22) ([3]; Compound Conc. 4.57247E−05 μM): −1.30% and −19.44% and 7.09% and −4.72% and −19.37% and 12.73% and 33.63% and −8.80% and 13.17% and 6.1% and 16.75% and −8.17%
- IC50 ([3]; Average preliminary biomarker assay, read-out: IL-22 IC50 Mean): 0.2 nM
- IC50 ([3]; Preliminary biomarker assay, Test Subject 1, read-out: IL-22 IC50): 0.2 nM
- IC50 ([3]; Preliminary biomarker assay, Test Subject 2, read-out: IL-22 IC50): 0.1 nM
- IC50 ([3]; Preliminary biomarker assay, Test Subject 3, read-out: IL-22 IC50): 0.3 nM
- IC50 ([3]; ELISA, read-out: Selectivity (IC50) IL-22): 0.214 nM
- IC50, inhibition of release of IL-22 ([3]; human PBMCs, 72 hours): sub-nanomolar
- EC50 ([4]; previously determined, reference level for rat plasma concentrations (FIG. 4D), read-out: free EC50 BD1 (converted)): 182000 nM
- EC50 ([4]; reference level for dog plasma concentrations (Dog PK study #4), read-out: free EC50 BD1 BRD4): 139000 nM

From patent US20260217701A1, “SELECTIVE BET INHIBITORS AND USES THEREOF” (Tay Therapeutics Limited, priority 2022, published 2026)
